From patent US20020082241A1, “Adenosine as antithrombotic” (priority 2000, published 2002) come the findings set out here.

Data set [1] concerns the target T1, gpIIb/IIIa (binding of fibrinogen) (Homo sapiens, UniProt P05106+P08514).
T1 construct: The gpIIb/IIIa purified from platelet was coated on flat wells of a plastic 96-well plate; from tissue; host or cells: platelets
The data set is described as follows: competitive ELISA for inhibition of the binding of fibrinogen to gpIIb/IIIa. As to conditions: samples 5-60 μg/ml; biotin-labeled fibrinogen 1.5 μg/ml; 37° C.; OD value; FIG. 8. The procedure: A competitive ELISA assay for analyzing that the binding of fibrinogen to gpIIb/IIIa is inhibited was performed for comparative analysis, where the compound, commercial adenosine (a product from Sigma, Cat. A-9251, Lot. 18H0295) and ReoPro® (abciximab) (10 mg/ml; produced by Eli Lilly for laboratory use only, Lot. 97F03, which is a monoclonal antibody and an antagonist against gpIIb/IIIa) were tested. The gpIIb/IIIa purified from platelet was coated on flat wells of a plastic 96-well plate. Samples of each of the test compounds were prepared in a concentration in a range of 5-60 μg/ml. A solution of biotin-labeled fibrinogen was prepared in a concentration of 1.5 μg/ml. Prior to addition to the wells, each of the samples were individually mixed with an equal volume of the biotinylated fibrinogen. The competitive binding reaction in the plate was performed at 37° C. for 2 hours. After another 2 hours for incubation, strepavidin-conjugated alkaline phosphatase was added to each well of the plate. A substrate solution containing p-nitrophenyl phosphate was then added to each well for coloring by a conventional way. The capability of each tested compound in the inhibition of the binding of fibrinogen to gpIIb/IIIa was measured and recorded as OD value.

Data set [2] has as its target T2, platelet membrane receptor protein gpIIb/IIIa (Homo sapiens, UniProt P05106+P08514).
T2 construct: platelet membrane receptor protein gpIIb/IIIa was purified from platelets; from tissue; host or cells: platelets
The data set is described as follows: gpIIb/IIIa binding assay with compound spotted on plate and labeled gpIIb/IIIa. The following applies: concentration of the compound below 10 μg/ml; serial dilution 0 to 50 μg/ml; FIG. 5. On the procedure: For conducting the target-binding assay, platelet membrane receptor protein gpIIb/IIIa was purified from platelets, and its purity was determined by SDS-PAGE and silver staining. The purified protein gpIIb/IIIa was labeled with biotin as described in the conventional protocol. The 120 collected samples were individually coated onto a 384-well plastic plate. The biotin-labeled protein gpIIb/IIIa was added to the sample-coated plastic plate and was incubated with the coated samples at room temperature for 30 minutes. Each well was then washed with TBST buffer for 3 times, to which the extravidin-conjugated alkaline phosphatase was added, and each well was further incubated for 30 minutes. The previous washing step was repeated and each well was then colored with substrate p-nitrophenyl phosphate. The absorption for each well at a wavelength of 405 nm was determined by an automatic ELISA reader (Dynax). […] The compound “adenosine” obtained from Example 4 was used as a standard for the characterization of each batch preparation of the compound. The compound, when purified, was collected, dried and used to verify its gpIIb/IIIa binding capacity. For conducting the binding assay, the compound was formulated into an aqueous solution, and a serial dilution for forming a final concentration of 0 to 50 μg/ml was made. […]

The test system of the next data set is platelet aggregation. The data set is described as follows: ADP-activated platelet aggregation assay. It counts as cell-based. The procedure: To assay the platelet aggregation-inhibiting activity of the compound, a regular ADP-activated platelet aggregation assay was performed. The reagents used for conducting the assay were purchased from Sigma. […] The maximal inhibition activity was about 85%, which occurs at the concentration of the compound from 10 to 15 μg/ml blood.

For data set [3], the system named is thrombus formation in mesenteric vein. The data set is described as follows: thrombus formation in vivo in mesenteric vein of rats (electrical stimulation). As to conditions: rat. The procedure:
The thrombus formation in vivo in mesenteric vein of rats was used for evaluating an effect of the compound on the inhibition of venous thrombosis. In brief, groups of 3 male Wistar-derived rats, each weighing 60±10 gm, were used for each dosage test. The rats were anesthetized with phenobarbital sodium (50 mg/kg, i.p.), and paralyzed with succinylcholine chloride (2 mg/rat, i.p.). A mesenteric loop and vein was then exposed and mounted on a constructed platform. The exposed area was superfused with a normal saline at 37° C. except during electrode placement and stimulation. With the aid of a dissecting microscope and micromanipulator, a monopolar platinum electrode was brought into and contact with the vein. […] The relative venous occlusion (a measured degree of thrombus formation) was determined as a percentage of venous diameter (0.36 to 0.3 8 mm) and was recorded at 10 seconds (baseline control score) and at 1 minute interval for 20 minutes. […] In the vehicle-treated animals, the 20-minute interval recorded values were averaged, which attains a value ranging from 45 to 55% of the interval vein diameter. Consequently, the antithrombic activity of the compound was calculated as % of inhibition relative to the vehicle-treated control animals. […]

A short description of data set [4]: acute toxicity in adult rats, single intravenous dose. It counts as in vivo. The following applies: rat, single i.v. dose, up to approximately 70 mg/kg (69.55±5.65 mg/kg), necropsy Day 8. On the procedure: The potential acute toxicity of the compound in adult rats when administered intravenously as a single dose was examined. Twenty animals were divided into five treatment groups of two males and two females each as follows: Group 1: vehicle control; Group 2: 1 mg of the compound/kg body weight of animal; Group 3: 10 mg of the compound/kg body weight of animal; Group 4: 50 mg of the compound/kg body weight of animal; and Group 5: 100 mg of the compound/kg body weight of animal. The tested article was reconstituted with 0.9% sodium chloride injection to provide 0.64±0.05 mg/kg (Group 2), 6.89±1.13 mg/kg (Group 3), 35.02±5.02 mg/kg (Group 4) and 69.55±5.65 mg/kg (Group 5). Animals were dosed on Day 1, and scheduled necropsies conducted on Day 8 included gross examination of organs and tissues, organ weight measurements, and tissue collection for potential histopathological examination. It was found in the compound treatment groups that there was no change in clinical observations, serum chemistry, hematology, gross examination, body weight and organ weight (absolute and relative) that could be attributed to the compound.

T1 sequence (P08514 32-887 limits assumed): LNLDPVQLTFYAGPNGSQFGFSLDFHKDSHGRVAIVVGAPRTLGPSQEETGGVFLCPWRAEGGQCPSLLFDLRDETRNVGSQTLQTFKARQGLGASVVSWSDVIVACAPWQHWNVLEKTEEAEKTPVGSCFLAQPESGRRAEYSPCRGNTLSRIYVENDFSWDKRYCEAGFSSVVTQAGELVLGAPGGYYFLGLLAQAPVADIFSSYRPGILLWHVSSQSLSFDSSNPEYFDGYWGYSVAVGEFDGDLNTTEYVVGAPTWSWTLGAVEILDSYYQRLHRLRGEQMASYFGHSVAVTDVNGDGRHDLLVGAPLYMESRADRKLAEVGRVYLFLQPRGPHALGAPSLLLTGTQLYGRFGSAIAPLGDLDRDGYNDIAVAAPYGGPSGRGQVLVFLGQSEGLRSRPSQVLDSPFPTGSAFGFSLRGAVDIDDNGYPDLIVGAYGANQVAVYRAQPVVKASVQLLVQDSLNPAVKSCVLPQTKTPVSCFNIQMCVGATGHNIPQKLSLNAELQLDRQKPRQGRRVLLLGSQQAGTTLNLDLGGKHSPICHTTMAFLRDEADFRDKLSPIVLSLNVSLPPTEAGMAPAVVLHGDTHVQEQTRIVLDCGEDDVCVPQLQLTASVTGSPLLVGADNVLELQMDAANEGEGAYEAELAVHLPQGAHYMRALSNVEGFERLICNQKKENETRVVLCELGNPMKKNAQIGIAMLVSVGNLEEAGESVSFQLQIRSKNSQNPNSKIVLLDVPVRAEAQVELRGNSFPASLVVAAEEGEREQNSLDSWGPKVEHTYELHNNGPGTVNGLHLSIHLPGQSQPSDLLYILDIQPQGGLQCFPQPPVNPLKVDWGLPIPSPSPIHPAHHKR
T1 sequence (P08514 891-1039 limits assumed): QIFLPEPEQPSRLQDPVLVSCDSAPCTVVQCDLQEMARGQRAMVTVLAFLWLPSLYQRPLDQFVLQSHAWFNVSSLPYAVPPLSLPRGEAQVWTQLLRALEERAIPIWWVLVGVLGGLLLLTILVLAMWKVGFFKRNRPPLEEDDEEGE
T1 sequence (P05106 27-788): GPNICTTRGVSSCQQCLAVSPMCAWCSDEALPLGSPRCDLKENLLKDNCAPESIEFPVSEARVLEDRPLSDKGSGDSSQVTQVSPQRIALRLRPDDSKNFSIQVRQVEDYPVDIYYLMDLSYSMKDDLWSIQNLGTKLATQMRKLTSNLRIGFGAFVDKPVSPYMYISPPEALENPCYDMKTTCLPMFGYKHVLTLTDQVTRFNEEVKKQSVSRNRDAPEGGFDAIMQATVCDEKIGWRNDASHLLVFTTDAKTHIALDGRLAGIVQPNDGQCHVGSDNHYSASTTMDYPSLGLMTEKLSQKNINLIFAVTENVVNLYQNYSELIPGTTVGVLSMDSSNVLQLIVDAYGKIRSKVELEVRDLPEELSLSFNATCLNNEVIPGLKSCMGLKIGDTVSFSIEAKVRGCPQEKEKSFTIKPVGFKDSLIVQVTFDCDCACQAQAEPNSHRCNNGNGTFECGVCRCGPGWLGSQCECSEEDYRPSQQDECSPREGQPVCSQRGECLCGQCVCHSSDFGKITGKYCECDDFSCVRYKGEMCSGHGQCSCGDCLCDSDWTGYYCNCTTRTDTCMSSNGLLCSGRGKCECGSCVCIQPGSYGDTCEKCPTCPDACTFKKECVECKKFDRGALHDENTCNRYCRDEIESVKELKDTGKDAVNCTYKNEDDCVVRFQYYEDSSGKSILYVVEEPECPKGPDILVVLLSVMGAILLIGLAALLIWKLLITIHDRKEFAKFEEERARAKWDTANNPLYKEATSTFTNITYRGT
T2 sequence (P08514 32-887 limits assumed): as the sequence (P08514 32-887 limits assumed) above
T2 sequence (P08514 891-1039 limits assumed): as the sequence (P08514 891-1039 limits assumed) above
T2 sequence (P05106 27-788): as the sequence (P05106 27-788) above

As usually defined, the inhibition is the relative decrease from the control value, in per cent. For the compound `Nc1ncnc2c1ncn2[C@@H]1O[C@H](CO)[C@@H](O)[C@H]1O` [the compound, adenosine], the “inhibition of the binding of fibrinogen to gpIIb/IIIa, compared with ReoPro (abciximab)” value in data set [1] is recorded as “superior effect”. In addition, the “inhibition of the binding of fibrinogen to gpIIb/IIIa, the compound compared with commercial adenosine” value in data set [1] is “quite similar function”. The “binding to gpIIb/IIIa, % of the maximal binding” value in data set [2] was found to be 80%. Further, the inhibition at 17.4 µg/mL with platelet aggregation (Platelet, 17.4 μg/ml, occurring from the 14th to 16th minutes, FIG. 6B, read-out: maximal inhibition activity on platelet aggregation (time course)) was about 85%. In the data set on platelet aggregation (at concentration from 10 to 15 μg/ml blood, FIG. 6A), the “maximal inhibition activity on platelet aggregation (dose response)” value is given as “about 85%”. Also, the “antithrombic activity relative to vehicle treated group, i.v.” value in data set [3] (400 μg/rat i.v. 5 minutes before stimulation, at 7, 11, 12, 13, 14, 15, 16, 17 and 19 minutes after electric stimulation, FIG. 7A) was “significance relative to the vehicle treated group”. Also, in data set [3] (4 mg/rat oral feeding 1 hour prior to stimulation, observed at 14, 15, 16, 17, 18 and 20 minutes, FIG. 7C), the “antithrombic activity relative to vehicle treated group, oral” value is given as “significant antithrombic activity”. Also, the acute toxicity result in data set [4] is given as “No signs of overt toxicity”; in data set [4] (listed as adenosine), “no acute toxicity”.
